# Measured values: US20080274097A1, “BOOSTER FOR THERAPY OF DISEASES WITH ULTRASOUND AND PHARMACEUTICAL LIQUID COMPOSITION CONTAINING THE SAME” (priority 1991, published 2008)
# System: artificial thrombosis
# Experiment: Fibrinolysis of artificial thrombosis (Chandler's method) with ultrasonic catheter
# Set-up: species or system human
# Details: for time for achieving 20% fibrinolysis: FIG. 4, thrombosis from blood of one person, urokinase 1200 IU/ml
# Experimental: An artificial thrombosis was formed by Chandler's method. Blood (1 ml) that was collected from healthy humans (two persons) was entered into a flexible tube (inside diameter 3 mm, length 265 mm) and thereto was added calcium chloride, and then the tube was made a loop like shape, which was rotated at 12 rpm for 20 minutes to give an artificial thrombosis model.
# A ceramic ultrasonic element (width 2 mm, length 5 mm, thickness 1 mm) was inserted into the tip of a catheter (diameter 2 mm), and an oscillating element was connected to an oscillator provided outside with a fine connector passed through the catheter. A fine tube for pouring a test solution was provided at an opening opposite to the opening of the catheter end.
# The artificial thrombosis prepared above was added to a test tube together with blood, and the ultrasonic catheter was inserted into the test tube so that the end of the catheter was set close to the portion of the artificial thrombosis (at a distance of about 5 mm), and to the test tube a mixture of urokinase and a booster prepared in Example 1 was added at a rate of 1 ml per minute, wherein urokinase (concentration 1200 IU/ml) and the booster were mixed immediately before pouring at a mixing ration of 1:1 by weight. The mixture was refluxed while keeping the volume of the test solution at a constant level by removing excess volume of the solution by suction. The ultrasound (170 KHz) was exposed to the mixture by a pulse method (exposed for 2 seconds and stopped for 4 seconds) for 2 minutes (total exposing time 40 seconds). After the exposure, the ultrasonic catheter was removed from the test tube, and the mixture was incubated at 37 degrees C. for 5 to 120 minutes, washed with a physiological saline solution several times and dried overnight. Thereafter, the dried mixture was weighed. As a control, the above was repeated by using only a physiological saline solution.
# The rate of fibrinolysis was calculated by the following equation: […]
# The results are shown in the accompanying FIGS. 4 and 5 wherein there are shown in average of twice tests.
substance,measurement,setting,value
urokinase,time for achieving 20% fibrinolysis,"with exposure of ultrasound (170 KHz, pulse, 2 minutes)",30 min
same,time for achieving 20% fibrinolysis,without exposure of ultrasound,45 min
same,treatment time at which 50% fibrinolysis was achieved,"FIG. 5, thrombosis from blood of another person, with exposure of ultrasound, energy reduced by 15%",60 min
